Paper PMC10124904, “Activation of Gcn2 by small molecules designed to be inhibitors” (The Journal of Biological Chemistry, 2023)
pIC50: −log10 of the molar value. Several values for one entry are separate records, joined by “and”; a condition that tells them apart may be missing. Equal entries are not always repeated.

What was measured:
Assay type in all cases: cell-based
Gcn2 [1] = target: T1, Gcn2 (Homo sapiens, UniProt Q9P2K8); assay: Immunoblot of ISR markers (p-Gcn2, p-eIF2α, Atf4) in HEK293 cells with endogenous Gcn2 (End. WT)
T1 construct: HEK293 cells expressing endogenous WT Gcn2 (End WT); endogenous in cells; host or cells: HEK293 (HEK293A with integrated P(AAREx6)-Luc; HEK293/HEK293T)

Gcn2 [2] = target: T1, Gcn2; assay: P(AAREx6)-Luc Atf4 transcriptional activity reporter in HEK293 cells; conditions: for dose response of Atf4 activity (P(AAREx6)-Luc): 2× serial dilution from 78 nM to 20 μM
Description: HEK-derived cells were used in this study. HEK293T cells were obtained from American Type Culture Collection. HEK293A cells were purchased from Invitrogen. Cells were cultured in Dulbecco's modified Eagle's medium (DMEM) (Corning 10-013-CV) supplemented with 10% (vol/vol) fetal bovine serum (Corning 35-010-CV), 100 U/ml penicillin, and 0.1 mg/ml streptomycin (Hyclone SV30010), hereafter referred to as DMEM complete, at 37 °C in 5% CO2 humidified incubator. […] To create cells stably expressing a luciferase reporter for Atf4 transcription activity, HEK293A cells were transduced with a lentivirus encoding an Atf4 transcription reporter (P(AAREx6)-Luc), which consists of six copies of C/ebp-Atf4 consensus binding sequence (5′-[…]-3′) upstream of a minimal promoter followed by the firefly luciferase coding sequence. Selection of the stable expression of the luciferase reporter was selected in DMEM complete supplemented with 1 μg/ml puromycin.
For transcriptional reporter assays, HEK293-P(AAREx6)-Luc cells were seeded into 96-well plate at 10,000 cells/well and cultured in DMEM complete at 37 °C with 5% CO2 overnight. After 24 h, cells were treated with HF or Gcn2iB, as indicated. After 6 h of culture, the media was replaced with 1:1 dilution of DMEM complete to Bio-Glo luciferase assay reagent (Promega Cat # G7940). The assay plate was incubated at room temperature for 15 min at 200 rpm on rotary plate shaker and then luminescence was read on BioTek Synergy H1 microplate reader using 1 s integration time and gain setting between 135 and 200. Luciferase activity was measured as luminescence for each of three experiments per treatment.

Flag-Gcn2 M802V = target: T2, Flag-Gcn2 M802V (Homo sapiens, UniProt Q9P2K8, M802V); assay: Atf4-Luc translational reporter, Gcn2 KO HEK293 cells expressing Flag-Gcn2 M802V; conditions: 4 nM Gcn2iB, 6 h
T2 construct: Transomic Technologies) was inserted into pCDNA5; expressed in transfected cells; host or cells: HEK293 Gcn2 KO cells, transient transfection
Excerpt: (§1) The human Gcn2 coding sequence from pENTR223-1 Gcn2 (NM_001013703; Transomic Technologies) was inserted into pCDNA5 to create an amino-terminal 3× flag tag fusion with Gcn2 by using an In-Fusion HD cloning kit and a three-way cloning reaction method. The resulting plasmid pCDNA5-Gcn2, referred to in the text as Flag-Gcn2, was used as a template to construct the mutant versions detailed in Table 1 by site-directed mutagenesis using an In-Fusion HD cloning kit (Takara Bio). The Gcn2 expressing plasmid was introduced transiently into the HEK293-Gcn2 KO cells as described in the following complementation section. Plasmid pMSCV-Gadd34-puro contains the human Gadd34 (PPP1R15A, NM_014330.5) gene subcloned into the NcoI/EcoRI sites of the retroviral vector pMSCV-puro ([24]).
(§2) For translational reporter assays, HEK293-Gcn2 KO cells were cotransfected with WT or mutant Gcn2 and the reporter Atf4-Luc and nano-luciferase plasmids and then treated with HF or Gcn2iB. Gcn2 activity was measured in a dual luciferase assay. To perform this experiment, HEK293-Gcn2 KO cells were seeded into 12-well plates at 50,000 cells/well. […] The Atf4-Luc and nano-luciferase signals were measured with Nano-Glo Dual-Luciferase Reporter Assay kit (Promega Cat #N1620) using a Turner Biosystems 20/20 luminometer. […]

Flag-Gcn2 M802F = target: T3, Flag-Gcn2 M802F (Homo sapiens, UniProt Q9P2K8, M802F); assay: Atf4-Luc translational reporter, Gcn2 KO HEK293 cells expressing Flag-Gcn2 M802F; conditions: Gcn2iB concentrations up to 4 μM, 6 h
T3 construct: Transomic Technologies) was inserted into pCDNA5; expressed in transfected cells; host or cells: HEK293 Gcn2 KO cells, transient transfection
Excerpt: as §1, §2

[3] = target: T4, Flag-Gcn2 M2 (F1143L/R1144L) (Homo sapiens, UniProt Q9P2K8, F1143L/R1144L); assay: Atf4-Luc translational reporter, Gcn2 KO HEK293 cells expressing Flag-Gcn2 M2; conditions: 50 nM Gcn2iB, 1 μM neratinib, 2 μM dovitinib or 2 μM dabrafenib, 6 h
T4 construct: Transomic Technologies) was inserted into pCDNA5; expressed in transfected cells; host or cells: HEK293 Gcn2 KO cells, transient transfection
Excerpt: as §1, §2

Flag-Gcn2 WT = target: T5, Flag-Gcn2 WT (Homo sapiens, UniProt Q9P2K8); assay: Atf4-Luc translational reporter, Gcn2 KO HEK293 cells expressing Flag-Gcn2 WT; conditions: 50 nM Gcn2iB vs vehicle, 6 h
T5 construct: Transomic Technologies) was inserted into pCDNA5; expressed in transfected cells; host or cells: HEK293 Gcn2 KO cells, transient transfection of pCDNA5-Gcn2
Excerpt: as §1, §2

Flag-Gcn2 T899A = target: T6, Flag-Gcn2 T899A (Homo sapiens, UniProt Q9P2K8, T899A); assay: Atf4-Luc translational reporter, Gcn2 KO HEK293 cells expressing Flag-Gcn2 T899A; conditions: 6 h; for increase in Atf4-Luc activity: T899A Gcn2, 50 nM Gcn2iB, 1 μM neratinib, 2 μM dovitinib or 2 μM dabrafenib
T6 construct: Transomic Technologies) was inserted into pCDNA5; expressed in transfected cells; host or cells: HEK293 Gcn2 KO cells, transient transfection
Excerpt: as §1
(§3) For translational reporter assays, HEK293-Gcn2 KO cells were cotransfected with WT or mutant Gcn2 and the reporter Atf4-Luc and nano-luciferase plasmids and then treated with HF or Gcn2iB. Gcn2 activity was measured in a dual luciferase assay. To perform this experiment, HEK293-Gcn2 KO cells were seeded into 12-well plates at 50,000 cells/well. […] For experiments with Gadd34 expression, 100 ng of vector control or Gadd34 expression plasmid was included in the transfection. […] The Atf4-Luc and nano-luciferase signals were measured with Nano-Glo Dual-Luciferase Reporter Assay kit (Promega Cat #N1620) using a Turner Biosystems 20/20 luminometer. Firefly luciferase activity was normalized to nano-luciferase control for each of three biological replicates.

Flag-Gcn2 K619A = target: T7, Flag-Gcn2 K619A (Homo sapiens, UniProt Q9P2K8, K619A); assay: Atf4-Luc translational reporter, Gcn2 KO HEK293 cells expressing Flag-Gcn2 K619A; conditions: 50 nM Gcn2iB, 1 μM neratinib, 2 μM dovitinib or 2 μM dabrafenib, 6 h
T7 construct: Transomic Technologies) was inserted into pCDNA5; expressed in transfected cells; host or cells: HEK293 Gcn2 KO cells, transient transfection
Excerpt: as §1, §3

Gcn2 [4] = target: T1, Gcn2; assay: Atf4-Luc translational reporter in HEK293 cells (endogenous Gcn2); conditions: 6 h
[5] = Gcn2iB pretreatment 30 min, then 12.5 nM HF 6 h
[6] = 25 nM HF, time course up to 6 h
[7] = 2 μM tunicamycin, 6 h, immunoblot

T1 sequence (Q9P2K8 whole entry): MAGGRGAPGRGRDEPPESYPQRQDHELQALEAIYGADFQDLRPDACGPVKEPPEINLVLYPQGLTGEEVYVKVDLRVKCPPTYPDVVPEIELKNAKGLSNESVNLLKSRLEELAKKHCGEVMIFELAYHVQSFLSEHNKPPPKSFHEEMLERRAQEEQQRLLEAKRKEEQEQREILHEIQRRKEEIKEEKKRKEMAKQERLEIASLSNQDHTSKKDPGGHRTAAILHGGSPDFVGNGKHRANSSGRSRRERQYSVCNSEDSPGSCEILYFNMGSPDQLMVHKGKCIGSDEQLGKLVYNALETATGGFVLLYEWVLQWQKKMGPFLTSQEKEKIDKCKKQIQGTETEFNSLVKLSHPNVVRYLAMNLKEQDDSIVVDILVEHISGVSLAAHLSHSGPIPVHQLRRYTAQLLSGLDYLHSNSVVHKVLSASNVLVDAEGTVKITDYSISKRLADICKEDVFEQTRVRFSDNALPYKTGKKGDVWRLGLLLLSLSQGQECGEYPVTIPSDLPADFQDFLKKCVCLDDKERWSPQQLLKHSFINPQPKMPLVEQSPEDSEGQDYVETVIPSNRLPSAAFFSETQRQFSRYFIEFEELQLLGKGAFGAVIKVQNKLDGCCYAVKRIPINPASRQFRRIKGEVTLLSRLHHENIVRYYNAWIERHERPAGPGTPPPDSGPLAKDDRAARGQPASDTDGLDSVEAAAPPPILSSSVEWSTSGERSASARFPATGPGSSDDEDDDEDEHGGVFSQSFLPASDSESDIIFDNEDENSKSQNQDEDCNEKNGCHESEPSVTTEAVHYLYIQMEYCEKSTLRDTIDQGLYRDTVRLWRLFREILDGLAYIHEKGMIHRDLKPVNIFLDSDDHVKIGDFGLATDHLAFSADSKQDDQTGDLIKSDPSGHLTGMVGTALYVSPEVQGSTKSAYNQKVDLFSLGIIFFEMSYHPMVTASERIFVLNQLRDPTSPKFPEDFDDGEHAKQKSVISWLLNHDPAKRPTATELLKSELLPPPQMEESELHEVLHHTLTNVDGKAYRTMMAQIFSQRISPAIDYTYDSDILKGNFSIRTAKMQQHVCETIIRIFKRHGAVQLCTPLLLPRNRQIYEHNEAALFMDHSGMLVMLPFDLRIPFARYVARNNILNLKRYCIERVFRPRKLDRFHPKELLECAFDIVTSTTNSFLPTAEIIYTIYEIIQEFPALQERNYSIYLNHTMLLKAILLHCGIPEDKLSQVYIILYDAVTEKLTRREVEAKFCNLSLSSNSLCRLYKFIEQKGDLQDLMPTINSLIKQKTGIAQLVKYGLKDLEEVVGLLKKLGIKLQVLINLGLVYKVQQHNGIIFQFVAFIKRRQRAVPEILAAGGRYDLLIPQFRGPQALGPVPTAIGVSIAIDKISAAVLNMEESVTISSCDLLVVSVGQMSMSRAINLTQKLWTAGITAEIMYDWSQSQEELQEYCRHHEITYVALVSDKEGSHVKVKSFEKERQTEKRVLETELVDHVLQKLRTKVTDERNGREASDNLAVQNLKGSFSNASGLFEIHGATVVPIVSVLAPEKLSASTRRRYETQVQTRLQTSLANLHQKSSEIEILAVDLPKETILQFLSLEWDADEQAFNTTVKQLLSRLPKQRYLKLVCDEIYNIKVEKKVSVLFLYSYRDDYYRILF
T7 sequence (Q9P2K8 whole entry K619A): as the sequence (Q9P2K8 whole entry) above, with K619A counted along it
T6 sequence (Q9P2K8 whole entry T899A): as the sequence (Q9P2K8 whole entry) above, with T899A counted along it
T4 sequence (Q9P2K8 whole entry F1143L/R1144L): as the sequence (Q9P2K8 whole entry) above, with F1143L, R1144L counted along it
T5 sequence (Q9P2K8 whole entry): as the sequence (Q9P2K8 whole entry) above
T3 sequence (Q9P2K8 whole entry M802F): as the sequence (Q9P2K8 whole entry) above, with M802F counted along it
T2 sequence (Q9P2K8 whole entry M802V): as the sequence (Q9P2K8 whole entry) above, with M802V counted along it

Compound: O=C(COc1ccc(Cl)c(F)c1)NC12CC(NC(=O)c3cnc(C(F)F)cn3)(C1)C2 [2B-Act]
- effect of cotreatment on Gcn2iB-induced p-eIF2α and Atf4 levels (Gcn2 [1]; 1 μM A-92 or 2 μM 2B-Act pretreatment 30 min, then 50 nM Gcn2iB 6 h): lowered p-eIF2α and Atf4 levels
- effect on biphasic induction of luciferase activity by Gcn2iB (Gcn2 [2]; pretreated 30 min with 1 μM A-92 or 2 μM 2B-Act, then Gcn2iB 6 h): ablated

Compound: COc1ncc(Cl)cc1S(=O)(=O)Nc1ccc(F)c(C#Cc2cnc(N)nc2)c1F [Gcn2iB]
- increase in Atf4-Luc activity relative to untreated M802V cells (Flag-Gcn2 M802V): 2 fold
- Atf4-Luc activity in Gcn2iB dose response (Flag-Gcn2 M802F): maintained the same level of Atf4-Luc activity
- increase in Atf4-Luc activity [3]: able to increase Atf4-Luc activity
- time of maximal Atf4 expression (Gcn2 [1]; 50 nM Gcn2iB time course up to 6 h, WT cells): 6 h
- induction of p-eIF2α (Gcn2 [1]; 50 nM Gcn2iB time course, WT cells, detected as early as 30 min): 2.7 fold
- Gcn2iB concentration giving reductions in HF-induced Atf4 (Gcn2 [1]; [5]): ≥ 250 nM
- Gcn2iB concentration giving reductions in HF-induced p-Gcn2 (Gcn2 [1]; [5]): ≥ 62.5 nM
- Gcn2iB concentration above which p-Gcn2 was lowered below vehicle and Atf4 not appreciably induced (Gcn2 [1]; absence of HF, 6 h): Above 250 nM
- effect on HF-induced P(AAREx6)-Luc activity (Gcn2 [2]; 25 nM HF + 2 μM Gcn2iB, 6 h): sharply reduced
- Gcn2iB concentration at peak induction of luciferase activity (Gcn2 [2]; Gcn2iB only, absence of HF, 6 h): about 32 nM
- peak induction of luciferase activity (P(AAREx6)-Luc) (Gcn2 [2]; Gcn2iB only, absence of HF, 6 h, biphasic): 7.8 fold
- pIC50 (Gcn2 [2]; Gcn2iB pretreatment 30 min, then 12.5 nM HF 6 h, read-out: IC50 for diminishing HF-induced P(AAREx6)-Luc luciferase signal): 7.14
- Levels Atf4-Luc, fold change upon treatment (Flag-Gcn2 WT): 2.7 fold and 3 fold
- Levels Atf4-Luc, fold change upon treatment (Flag-Gcn2 T899A; 50 nM Gcn2iB vs vehicle, Flag-Gcn2 T899A): 2.8 fold
- increase in Atf4-Luc activity (Flag-Gcn2 T899A): able to increase Atf4-Luc activity
- increase in Atf4-Luc activity (Flag-Gcn2 K619A): no increase
- effect on HF-induced Atf4-Luc expression (Gcn2 [4]; 25 nM HF + 2 μM Gcn2iB): sharply diminished

Compound: O=C(CC1NCCCC1O)Cn1cnc2cc(Br)c(Cl)cc2c1=O (stereo not drawn) [HF, Halofuginone]
- time at which expression of Atf4 was enhanced (Gcn2 [1]; [6]): 1 h
- time to increased p-Gcn2 and p-eIF2α (Gcn2 [1]; [6]): ≤ 30 min
- Atf4 levels (Gcn2 [1]; 100 nM HF, 6 h, immunoblot): significant reduction
- increase in luciferase signal (P(AAREx6)-Luc) (Gcn2 [2]; 12.5 nM HF, 6 h): approximately 30 fold
- P(AAREx6)-Luc activity (Gcn2 [2]; 25 nM HF alone, 6 h): robust induction
- Atf4-Luc expression (Gcn2 [4]; 25 nM HF alone): robust induction

Compound: CN1CCN(c2ccc3nc(-c4c(N)c5c(F)cccc5[nH]c4=O)[nH]c3c2)CC1 [dovitinib]
- dose response of Atf4 activity (P(AAREx6)-Luc) (Gcn2 [2]; 6 h): biphasic induction
- increase in Atf4-Luc activity (Flag-Gcn2 K619A): no increase

Compound: CCOc1cc2ncc(C#N)c(Nc3ccc(OCc4ccccn4)c(Cl)c3)c2cc1NC(=O)/C=C/CN(C)C [neratinib]
- increase in Atf4-Luc activity [3]: able to increase Atf4-Luc activity
- dose response of Atf4 activity (P(AAREx6)-Luc) (Gcn2 [2]; 6 h): biphasic induction
- increase in Atf4-Luc activity (Flag-Gcn2 T899A): able to increase Atf4-Luc activity
- increase in Atf4-Luc activity (Flag-Gcn2 K619A): no increase

Compound: tunicamycin
- p-eIF2α and Atf4 (Gcn2 [1]; [7]): induced p-eIF2α and Atf4
- phosphorylation of Gcn2 (T899) (Gcn2 [1]; [7]): minimal phosphorylation of Gcn2
